Results reported in patent publication US10221138B2, “Biaryl derivatives as GPR120 agonists” (LG CHEM, LTD., priority 2013, dated 2019).

biological target: T1, hGPR120 (Homo sapiens, UniProt Q5NUL3); experiment: Measurement of activity of GPR120 agonist (cell-based calcium fluorescence assay); conditions: CHO-K1 cells expressing Ga16 and hGPR120, Calcium 5 dye fluorescence; activity class; read-out: EC50
T1 construct: expressed in transfected cells; host or cells: CHO-K1
T1 sequence (Q5NUL3 1-361): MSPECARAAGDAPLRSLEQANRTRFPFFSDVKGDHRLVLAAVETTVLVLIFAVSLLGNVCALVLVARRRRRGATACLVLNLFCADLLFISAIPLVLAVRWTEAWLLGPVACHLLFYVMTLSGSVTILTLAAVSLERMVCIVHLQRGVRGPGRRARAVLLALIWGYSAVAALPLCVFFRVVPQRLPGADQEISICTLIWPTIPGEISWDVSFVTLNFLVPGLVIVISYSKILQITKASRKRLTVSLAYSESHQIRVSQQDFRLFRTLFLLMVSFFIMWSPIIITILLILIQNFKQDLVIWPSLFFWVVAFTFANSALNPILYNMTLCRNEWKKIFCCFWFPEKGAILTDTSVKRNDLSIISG
How it was run: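 CHO-K1 cells co-expressing Gα16 and hGPR120, plated 18 h, loaded with Calcium 5 dye for 1 h at 37 °C, then given serially diluted agonists (final 0.5% DMSO). Fluorescence increase expressed as relative % of the 1% DMSO-only signal.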

EC50 [µM]	Structure (SMILES)
< 0.2	O=C(O)CCCSc1ccc(-c2cccnc2NC2CCCC2)cc1F [Example 170, 4-[4-(2-cyclopentylamino-pyridin-3-yl)-2-fluoro-phenylsulfanyl]-butyric acid]
< 0.2	O=C(O)CCCOc1c(F)cc(-c2ccccc2C2CCCC2)cc1F [Example 104, 4-[4-(2-cyclopentylphenyl)-2,6-difluoro-phenoxy]butanoic acid]
< 0.2	O=C(O)CCCOc1c(F)cc(-c2cccnc2OCC2CCCC2)cc1F [Example 229, 4-[4-(2-cyclopentylmethoxy-pyridin-3-yl)-2,6-difluoro-phenoxy]-butyric acid]
< 0.2	CCCOc1cccc(-c2ccc(SCCCC(=O)O)cc2)c1 [Example 127, 4-(3′-propoxy-biphenyl-4-ylsulfanyl)-butyric acid]
0.2 to 2	O=C(O)CCCOc1cc(F)c(-c2cccnc2SC2CCC2)c(F)c1 [Example 67, 4-[4-(2-cyclobutylsulfanyl-pyridin-3-yl)-3,5-difluoro-phenoxy]-butyric acid]
< 0.2	O=C(O)CCCOc1c(F)cc(-c2ccccc2NC2CCC2)cc1F [Example 89, 4-[4-[2-(cyclobutylamino)phenyl]-2,6-difluoro-phenoxy]butanoic acid]
0.2 to 2	Cc1ccc(-c2ccc(SCCCC(=O)O)c(F)c2)c(OC2CCCC2)n1 [Example 189, 4-[4-(2-cyclopentyloxy-6-methyl-pyridin-3-yl)-2-fluoro-phenylsulfanyl]-butyric acid]
> 20	CC(C)Sc1cc(-c2cc(F)c(OCCCC(=O)O)c(F)c2)ccn1 [Example 8, 4-[2,6-difluoro-4-(2-isopropylsulfanyl-4-pyridyl)phenoxy]butyric acid]
0.2 to 2	O=C(O)CCCOc1cc(F)c(-c2cccnc2SC2CCC2)cc1F [Example 61, 4-[4-(2-cyclobutylsulfanyl-pyridin-3-yl)-2,5-difluoro-phenoxy]-butyric acid]
0.2 to 2	CC(C)Sc1ncccc1-c1cc(F)c(OCCCC(=O)O)c(F)c1 [Example 41, 4-[2,6-difluoro-4-(2-isopropylsulfanyl-pyridin-3-yl)-phenoxy]-butyric acid]
< 0.2	O=C(O)CCCCOc1ccc(-c2cccnc2SC2CCCC2)cc1F [Example 265, 5-[4-(2-cyclopentylsulfanyl-pyridin-3-yl)-2-fluoro-phenoxy]-pentanoic acid]
< 0.2	O=C(O)CCCSc1c(F)cc(-c2cccc(OC3CCCC3)n2)cc1F [Example 155, 4-[4-(6-cyclopentyloxy-pyridin-2-yl)-2,6-difluoro-phenylsulfanyl]-bytyric acid]
0.2 to 2	O=C(O)CCCOc1ccc(-c2ccccc2NCC2CC2)cc1 [Example 85, 4-[4-[2-(cyclopropylmethylamino)phenyl]phenoxy]butanoic acid]
2 to 20	O=C(O)CCCOc1c(F)cc(-c2cccnc2OC2CCC(O)C2)cc1F (centres unmarked) [Example 227, 4-{2,6-difluoro-4-[2-(3-hydroxy-cyclopentyloxy)-pyridin-3-yl]-phenoxy}-butyric acid]
0.2 to 2	O=C(O)CCCOc1cc(F)c(-c2cccc(SC3CCC3)n2)cc1F [Example 62, 4-[4-(6-cyclobutylsulfanyl-pyridin-2-yl)-2,5-difluoro-phenoxy]-butyric acid]
2 to 20	O=C(O)CCCCCCOc1c(F)cc(-c2cccnc2OC2CCCC2)cc1F [Example 263, 7-[4-(2-cyclopentyloxy-pyridin-3-yl)-2,6-difluoro-phenoxy]-heptanoic acid]
0.2 to 2	O=C(O)CC1(COc2c(F)cc(-c3cccnc3SC3CCC3)cc2F)CC1 [Example 33, 2-[1-[[4-(2-cyclobutylsulfanyl-3-pyridyl)-2,6-difluoro-phenoxy]methyl]cyclopropyl]acetic acid]
0.2 to 2	O=C(O)CCCOc1ccc(-c2cccnc2SCC2CC2)cc1 [Example 49, 4-[4-(2-cyclopropylmethylsulfanyl-pyridin-3-yl)-phenoxy]-butyric acid]
< 0.2	O=C(O)CCCSc1ccc(-c2cccc(OC3CCCC3)c2)cc1 [Example 126, 4-(3′-cyclopentyloxy-biphenyl-4-ylsulfanyl)-butyric acid]
< 0.2	O=C(O)CCCSc1ccc(-c2ccccc2NC2CCCC2)cc1F [Example 160, 4-(2′-cyclopentylamino-3-fluoro-biphenyl-4-ylsulfanyl)-butyric acid]
< 0.2	O=C(O)CCCOc1c(F)cc(-c2ccccc2NCC2CC2)cc1F [Example 82, 4-[4-[2-(cyclopropylmethylamino)phenyl]-2,6-difluoro-phenoxy]butanoic acid]
0.2 to 2	CC(C)Oc1ccccc1-c1cc(F)c(OCCCC(=O)O)c(F)c1 [Example 52, 4-(3,5-difluoro-2′-isopropoxy-biphenyl-4-yloxy)-butyric acid]
0.2 to 2	CC(C)Nc1ncccc1-c1cc(F)c(SCCCC(=O)O)c(F)c1 [Example 250, 4-[2,6-difluoro-4-(2-isopropylamino-pyridin-3-yl)-phenylsulfanyl]-butyric acid]
0.2 to 2	CN(c1ccccc1)c1cccc(-c2cc(F)c(OCCCC(=O)O)c(F)c2)n1 [Example 17, 4-[2,6-difluoro-4-[6-(N-methylanilino)-2-pyridyl]phenoxy]butyric acid]
> 20	CN(C)CCOc1ncccc1-c1cc(F)c(OCCCC(=O)O)c(F)c1 [Example 203, 4-[4-[2-(2-dimethylaminoethyloxy)-3-pyridyl]-2,6-difluoro-phenoxy]butanoic acid]
< 0.2	Cc1cc(F)c(OC(C)C)c(-c2ccc(SCCCC(=O)O)c(F)c2)c1 [Example 190, 4-(3,3′-difluoro-2′-isopropoxy-5′-methyl-biphenyl-4-ylsulfanyl)-butyric acid]
> 20	O=C(O)CCCOc1c(F)cc(-c2cccnc2N2CCOCC2)cc1F [Example 111, 4-[2,6-difluoro-4-(2-morpholino-3-pyridyl)phenoxy]butanoic acid]
0.2 to 2	O=C(O)CCCSc1c(F)cc(-c2cccnc2NCC2CC2)cc1F [Example 251, 4-{4-[2-(cyclopropylmethyl-amino)-pyridin-3-yl]-2,6-difluoro-phenylsulfanyl}-butyric acid]
> 20	O=C(O)CCCOc1c(F)cc(-c2cccnc2NCC2CCOCC2)cc1F [Example 112, 4-[2,6-difluoro-4-[2-(tetrahydropyran-4-ylmethylamino)-3-pyridyl]phenoxy]butanoic acid]
< 0.2	C[C@@H](CCC(=O)O)Oc1c(F)cc(-c2cccnc2SC2CCC2)cc1F [Example 114, (4S)-4-[4-(2-cyclobutylsulfanyl-3-pyridyl)-2,6-difluoro-phenoxy]pentanoic acid]

Structure (SMILES)	EC50 [µM]
O=C(O)CCCOc1c(F)cc(-c2ccccc2OC2CCC2)cc1F [Example 53, 4-(2′-cyclobutoxy-3,5-difluoro-biphenyl-4-yloxy)-butyric acid]	< 0.2
O=C(O)CCCCCOc1c(F)cc(-c2cccnc2OC2CCC2)cc1F [Example 271, 6-[4-[2-(cyclobutoxy)-3-pyridyl]-2,6-difluoro-phenoxy]hexanoic acid]	0.2 to 2
